# Laboratory results reported in article PMC8954547, “Nonpeptidic Z360-Analogs Tagged with Trivalent Radiometals as Anti-CCK2R Cancer Theranostic Agents: A Preclinical Study” (Pharmaceutics, 2022).
# Several values for one entry are separate records, joined by “and”; a condition that tells them apart may be missing. Equal entries are not always repeated.
# Legend:
# [1] = Radioligand stability in mice (radio-HPLC of blood and urine); assay type: in vivo; details: mean ± SD; for Intact radioligand in blood: mice blood collected 5 min pi
# Procedure, shortened: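 Male Swiss albino mice (n=3) given 2.5–3 nmol radioligand i.v. via tail vein in saline/EtOH 9/1. Blood at 5 min and urine at 30 min pi, EDTA-treated on ice, MeCN-deproteinised, analysed by radio-RP-HPLC; value is mean percent intact radioligand ± SD.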
# [2] = test system: SCID mice bearing twin HEK293-CCK2i4svR and wtHEK293 tumors; experiment: Biodistribution in SCID mice bearing twin HEK293-CCK2i4svR and wtHEK293 xenografts; assay type: in vivo
# Procedure, shortened: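 Uptake is expressed as %IA/g (mean ± SD, n = 4) from gamma counting of blood, organs and tumours collected at set times: 1, 4 and 24 h pi for ^67Ga, 4 and 24 h for ^111In (±gelofusine), 4–96 h for ^177Lu. Radioligands were given iv at 7–40 pmol to SCID mice bearing twin CCK2i4svR-transfected and wild-type HEK293 xenografts.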
# [3] = test system: HEK293-CCK2i4svR and wtHEK293 xenografts; experiment: SPECT/CT of HEK293-CCK2i4svR and wtHEK293 xenografts; assay type: in vivo, mice; details: 4 h and 24 h pi
# Method: For SPECT/CT imaging, six mice bearing twin HEK293-CCK2i4svR and wtHEK293 tumors were injected in the tail vein with a bolus containing [^111In]In-GAS1/2/3 (100 μL, 9–12 MBq associated with 3 nmol total injected analog in-vehicle: saline/EtOH 9/1 v/v). Mice were euthanized at 4 h and 24 h pi. Tomographic SPECT/CT imaging was performed with the y-CUBE/x-CUBE systems (Molecubes, Belgium). The SPECT system is based on monolithic NaI detectors attached to SiPMs, with a 0.6 mm intrinsic resolution. The CT system is based on a structured CMOS detector of CsI with pixels of 75 µm and operates between 35–80 kVp, 10–500 µA tube current, with a 33 µm fixed focal spot size. SPECT scans were acquired 4 h pi and 24 h pi, with a 40–50 min duration protocol based on the injected activity, and each SPECT scan was succeeded by a CT scan, following General-Purpose protocol under 50 kVp, for co-registration purposes. SPECT images were reconstructed using the MLEM reconstruction method with a 250 µm voxel size and 500 iterations. CT images were reconstructed using the ISRA reconstruction method with a 100 µm voxel size.
# Images were exported and post-processed on VivoQuant software, version 4.0 (Invicro, Boston). A smoothing median filter (0.6 mm, spherical window) was applied to the images, and the bladder was removed for consistency purposes. Normalization of images was performed (i.e., all images having the same color scale range values) to achieve a direct visual comparison between the different groups.
# [4] = 4 h + Gelo (Gelofusine-treated mice)
# [5] = 24 h + Gelo (Gelofusine-treated mice)
compound,measurement,setting,value
CC(C)(C)C(=O)CN1C(=O)[C@H](NC(=O)Nc2cccc(C(=O)NCCOCCOCCOCCNC(=O)[C@@H](CCC(=O)O)NC(=O)CCC(C(=O)[O-])N3CCN(CC(=O)[O-])CCN(CC(=O)[O-])CC3)c2)CN(C2CCCCC2)c2ccccc21.[111In+3] (stereo partly shown) [[^111In]In-GAS2],Intact radioligand in blood,[1],73.1 ± 1.8% and 73.1 ± 1.8 (3) % and 98.3 ± 0.3 (3) %
same,"Biodistribution, Blood",[2]; [4],6.29 ± 1.08 %IA/g
same,"Biodistribution, CCK2i4svR(+) Tumor",[2]; [4],7.67 ± 0.61 %IA/g
same,"Biodistribution, CCK2i4svR(-) Tumor",[2]; [4],1.72 ± 0.30 %IA/g
same,"Biodistribution, Femur",[2]; [4],0.99 ± 0.17 %IA/g
same,"Biodistribution, Heart",[2]; [4],1.42 ± 0.21 %IA/g
same,"Biodistribution, Intestines",[2]; [4],9.48 ± 0.99 %IA/g
same,"Biodistribution, Kidneys",[2]; [4],21.90 ± 3.97 %IA/g
same,"Biodistribution, Liver",[2]; [4],4.56 ± 0.49 %IA/g
same,"Biodistribution, Muscle",[2]; [4],0.47 ± 0.04 %IA/g
same,"Biodistribution, Pancreas",[2]; [4],3.00 ± 0.58 %IA/g
same,"Biodistribution, Spleen",[2]; [4],1.32 ± 0.20 %IA/g
same,"Biodistribution, Stomach",[2]; [4],0.94 ± 0.15 %IA/g
same,"Biodistribution, Blood",[2]; 4 h pi,6.40 ± 0.75 %IA/g
same,"Biodistribution, CCK2i4svR(+) Tumor",[2]; 4 h pi,8.91 ± 1.59 %IA/g
same,"Biodistribution, CCK2i4svR(-) Tumor",[2]; 4 h pi,1.82 ± 0.25 %IA/g
same,"Biodistribution, Femur",[2]; 4 h pi,1.15 ± 0.10 %IA/g
same,"Biodistribution, Heart",[2]; 4 h pi,1.61 ± 0.23 %IA/g
same,"Biodistribution, Intestines",[2]; 4 h pi,9.71 ± 0.42 %IA/g
same,"Biodistribution, Kidneys",[2]; 4 h pi,29.55 ± 3.64 %IA/g
same,"Biodistribution, Liver",[2]; 4 h pi,5.42 ± 0.89 %IA/g
same,"Biodistribution, Lungs",[2]; 4 h pi,3.27 ± 0.46 %IA/g
same,"Biodistribution, Muscle",[2]; 4 h pi,0.56 ± 0.08 %IA/g
same,"Biodistribution, Pancreas",[2]; 4 h pi,2.99 ± 0.96 %IA/g
same,"Biodistribution, Spleen",[2]; 4 h pi,1.49 ± 0.14 %IA/g
same,"Biodistribution, Stomach",[2]; 4 h pi,1.31 ± 0.21 %IA/g
same,"Biodistribution, Blood",[2]; [5],0.15 ± 0.02 %IA/g
same,"Biodistribution, CCK2i4svR(+) Tumor",[2]; [5],2.92 ± 0.37 %IA/g
same,"Biodistribution, CCK2i4svR(-) Tumor",[2]; [5],0.45 ± 0.09 %IA/g
same,"Biodistribution, Femur",[2]; [5],0.25 ± 0.03 %IA/g
same,"Biodistribution, Heart",[2]; [5],0.22 ± 0.03 %IA/g
same,"Biodistribution, Intestines",[2]; [5],0.75 ± 0.06 %IA/g
same,"Biodistribution, Kidneys",[2]; [5],11.51 ± 2.64 %IA/g
same,"Biodistribution, Liver",[2]; [5],0.95 ± 0.12 %IA/g
same,"Biodistribution, Lungs",[2]; [5],0.44 ± 0.07 %IA/g
same,"Biodistribution, Muscle",[2]; [5],0.08± 0.01 %IA/g
same,"Biodistribution, Pancreas",[2]; [5],0.30 ± 0.05 %IA/g
same,"Biodistribution, Spleen",[2]; [5],0.56 ± 0.17 %IA/g
same,"Biodistribution, Stomach",[2]; [5],0.35 ± 0.06 %IA/g
same,"Biodistribution, Blood",[2]; 24 h pi,0.13 ± 0.02 %IA/g
same,"Biodistribution, CCK2i4svR(+) Tumor",[2]; 24 h pi,2.78 ± 0.43 %IA/g
same,"Biodistribution, CCK2i4svR(-) Tumor",[2]; 24 h pi,0.41 ± 0.10 %IA/g
same,"Biodistribution, Femur",[2]; 24 h pi,0.24 ± 0.04 %IA/g
same,"Biodistribution, Heart",[2]; 24 h pi,0.22 ± 0.01 %IA/g
same,"Biodistribution, Intestines",[2]; 24 h pi,0.68 ± 0.15 %IA/g
same,"Biodistribution, Kidneys",[2]; 24 h pi,10.16 ± 2.30 %IA/g
same,"Biodistribution, Liver",[2]; 24 h pi,0.96 ± 0.22 %IA/g
same,"Biodistribution, Lungs",[2]; 24 h pi,0.60 ± 0.37 %IA/g
same,"Biodistribution, Muscle",[2]; 24 h pi,0.08 ± 0.01 %IA/g
same,"Biodistribution, Pancreas",[2]; 24 h pi,0.29 ± 0.03 %IA/g
same,"Biodistribution, Spleen",[2]; 24 h pi,0.51 ± 0.09 %IA/g
same,"Biodistribution, Stomach",[2]; 24 h pi,0.36 ± 0.14 %IA/g
same,SPECT/CT uptake in CCK2i4svR expressing tumors,[3],Intense uptake
same,SPECT/CT uptake in wtHEK293 tumors devoid of CCK2i4svR expression,[3],no uptake is evident
CC(C)(C)C(=O)CN1C(=O)[C@H](NC(=O)Nc2cccc(C(=O)NCCOCCOCCOCCNC(=O)[C@H](CCC(=O)O)NC(=O)CN3CCN(CC(=O)[O-])CCN(CC(=O)[O-])CCN(CC(=O)[O-])CC3)c2)CN(C2CCCCC2)c2ccccc21.[111In+3] (stereo in doubt) [[^111In]In-GAS1],Intact radioligand in blood,[1],84.6 ± 2.4 (3) %
same,Intact radioligand in urine,[1]; mice urine collected 30 min pi,85.2 ± 5.2 (3) %
same,"Biodistribution, Blood",[2]; [4],2.75 ± 0.48 %IA/g
same,"Biodistribution, CCK2i4svR(+) Tumor",[2]; [4],19.17 ± 2.06 %IA/g
same,"Biodistribution, CCK2i4svR(-) Tumor",[2]; [4],0.86 ± 0.15 %IA/g
same,"Biodistribution, Femur",[2]; [4],0.65 ± 0.15 %IA/g
same,"Biodistribution, Heart",[2]; [4],0.92 ± 0.16 %IA/g
same,"Biodistribution, Intestines",[2]; [4],1.87 ± 0.08 %IA/g
same,"Biodistribution, Kidneys",[2]; [4],5.93 ± 0.56 %IA/g
same,"Biodistribution, Liver",[2]; [4],6.34 ± 0.86 %IA/g
same,"Biodistribution, Muscle",[2]; [4],0.28 ± 0.06 %IA/g
same,"Biodistribution, Pancreas",[2]; [4],1.47 ± 0.26 %IA/g
same,"Biodistribution, Spleen",[2]; [4],1.13 ± 0.28 %IA/g
same,"Biodistribution, Stomach",[2]; [4],0.77 ± 0.14 %IA/g
same,"Biodistribution, Blood",[2]; 4 h pi,3.51 ± 0.56 %IA/g
same,"Biodistribution, CCK2i4svR(+) Tumor",[2]; 4 h pi,17.79 ± 1.73 %IA/g
same,"Biodistribution, CCK2i4svR(-) Tumor",[2]; 4 h pi,0.73 ± 0.05 %IA/g
same,"Biodistribution, Femur",[2]; 4 h pi,0.77 ± 0.13 %IA/g
same,"Biodistribution, Heart",[2]; 4 h pi,1.10 ± 0.19 %IA/g
same,"Biodistribution, Intestines",[2]; 4 h pi,3.37 ± 0.89 %IA/g
same,"Biodistribution, Kidneys",[2]; 4 h pi,6.06 ± 1.24 %IA/g
same,"Biodistribution, Liver",[2]; 4 h pi,7.69 ± 1.00 %IA/g
same,"Biodistribution, Lungs",[2]; 4 h pi,2.23 ± 0.39 %IA/g
same,"Biodistribution, Muscle",[2]; 4 h pi,0.26 ± 0.04 %IA/g
same,"Biodistribution, Pancreas",[2]; 4 h pi,1.49 ± 0.19 %IA/g
same,"Biodistribution, Spleen",[2]; 4 h pi,1.56 ± 0.22 %IA/g
same,"Biodistribution, Stomach",[2]; 4 h pi,0.98 ± 0.21 %IA/g
same,"Biodistribution, Blood",[2]; [5],0.07 ± 0.01 %IA/g
same,"Biodistribution, CCK2i4svR(+) Tumor",[2]; [5],4.51 ± 0.55 %IA/g
same,"Biodistribution, CCK2i4svR(-) Tumor",[2]; [5],0.23 ± 0.04 %IA/g
same,"Biodistribution, Femur",[2]; [5],0.16 ± 0.01 %IA/g
same,"Biodistribution, Heart",[2]; [5],0.15 ± 0.02 %IA/g
same,"Biodistribution, Intestines",[2]; [5],0.49 ± 0.13 %IA/g
same,"Biodistribution, Kidneys",[2]; [5],1.69 ± 0.13 %IA/g
same,"Biodistribution, Liver",[2]; [5],1.30 ± 0.15 %IA/g
same,"Biodistribution, Lungs",[2]; [5],0.39 ± 0.03 %IA/g
same,"Biodistribution, Muscle",[2]; [5],0.06± 0.01 %IA/g
same,"Biodistribution, Pancreas",[2]; [5],0.14 ± 0.01 %IA/g
same,"Biodistribution, Spleen",[2]; [5],0.48 ± 0.08 %IA/g
same,"Biodistribution, Stomach",[2]; [5],0.25 ± 0.04 %IA/g
same,"Biodistribution, Blood",[2]; 24 h pi,0.08 ± 0.01 %IA/g
same,"Biodistribution, CCK2i4svR(+) Tumor",[2]; 24 h pi,5.40 ± 1.13 %IA/g
same,"Biodistribution, CCK2i4svR(-) Tumor",[2]; 24 h pi,0.27 ± 0.10 %IA/g
same,"Biodistribution, Femur",[2]; 24 h pi,0.16 ± 0.03 %IA/g
same,"Biodistribution, Heart",[2]; 24 h pi,0.15 ± 0.03 %IA/g
same,"Biodistribution, Intestines",[2]; 24 h pi,0.59 ± 0.11 %IA/g
same,"Biodistribution, Kidneys",[2]; 24 h pi,1.84 ± 0.38 %IA/g
same,"Biodistribution, Liver",[2]; 24 h pi,2.27 ± 0.30 %IA/g
same,"Biodistribution, Lungs",[2]; 24 h pi,0.36 ± 0.05 %IA/g
same,"Biodistribution, Muscle",[2]; 24 h pi,0.06± 0.00 %IA/g
same,"Biodistribution, Pancreas",[2]; 24 h pi,0.18 ± 0.03 %IA/g
same,"Biodistribution, Spleen",[2]; 24 h pi,0.64 ± 0.12 %IA/g
same,"Biodistribution, Stomach",[2]; 24 h pi,0.21 ± 0.05 %IA/g
same,SPECT/CT uptake in CCK2i4svR expressing tumors,[3],Intense uptake
same,SPECT/CT uptake in wtHEK293 tumors devoid of CCK2i4svR expression,[3],no uptake is evident
